The numbers were not newly measured in patent publication US5993850A, “Preparation of multivesicular liposomes for controlled release of encapsulated biologically active substances” (priority 1994, dated 1999), which cites them from elsewhere.

In the series the test system is strains of both gram negative and gram positive bacteria. The conditions noted are these: background statement; cited from earlier work.

In the case of `NCC[C@H](O)C(=O)N[C@@H]1C[C@H](N)[C@@H](O[C@H]2O[C@H](CN)[C@@H](O)[C@H](O)[C@H]2O)[C@H](O)[C@H]1O[C@H]1O[C@H](CO)[C@@H](O)[C@H](N)[C@H]1O` [amikacin], the antibacterial activity entry was “clinically significant activity against strains of both gram negative and gram positive bacteria”.
